Molecular target: T1, Tyk2/Jak2 (Homo sapiens, UniProt P29597)
T1 construct: Cell Type: Frozen primary phytohemagglutinin (PHA) T-Blasts; endogenous in cells; host or cells: primary PHA T-blasts
Assay: Tyk2 (Tyk2/Jak2 PSTAT4 T-Blast) alpha screen assay: inhibition of IL-12 induced phosphorylation of STAT4 in T-blast cells
Type: cell-based
Settings: IL-12 induced pSTAT4, T-blast cells
Procedure: 1. TYK2 (TYK2/JAK2 PSTAT4 T-BLAST) ALPHA SCREEN ASSAY
IL-12 is known to transduce its signal through IL-12 receptor via Jak2 and/or Tyk2. For that reason, the activity against Tyk2/Jak2 was measured by determining the inhibition of IL-12 induced phosphorylation of STAT4 in T-blast cells. […] See, e.g., Sohn et al., J. Immunology (2013) 2205-2216.
Cell Type: Frozen primary phytohemagglutinin (PHA) T-Blasts; Culture Medium: Roswell Park Memorial Institute (RPMI) 1640 Medium, 10% heat-inactivated fetal bovine serum (FBS), 1% penicillin/streptomycin (Pen-Strep), 10 mM hydroxyethyl piperazineethanesulfonic acid (HEPES), 10 ng/mL recombinant human interleukin-12 (rhIL-12); Assay Medium: Hank's Balanced Salt Solution (HBSS), no phenol red.
i. Automated 11-point 1:3 dilution curve: 2.5 mM top concentration dispensed in column 1 of a Corning 96-well polypropylene plate. Dimethyl sulfoxide (DMSO) was added to column 12 for high and low controls. Compounds were serially diluted 1:3 by adding 20 uL stock to 40 μL DMSO across the plate via Hamilton Microlab Star instrument.
ii. Media dilution of compounds: Serially diluted compounds were diluted 1:50 in assay medium by adding 4 μL compound to 196 μL assay medium in a Corning 96-well polypropylene plate (now 2% DMSO).
iii. […]
Primary T-Blasts from overnight culture were centrifuged, washed once in assay medium, and pelleted. T-Blasts were counted and resuspended at 12,500,000 cells/mL. […]
Phosphorylated Signal Transducer and Activator of Transcription 4 (pSTAT4) was quantified using the PerkinElmer SureFire Ultra pSTAT4 (Tyrosine 693) Assay. […]
Make master mix of Protein A donor beads using the following volumes per well: 5.88 μL Dilution Buffer and 0.12 μL […]. […] Read plate on Perkin Elmer Envision. […]
Certain compounds listed in Table C were tested for Tyk2 activity following the aforementioned Tyk2 (Tyk2/Jak2 PSTAT4 T-Blast) alpha screen assay and Jak2 (PTATS UT7) alpha screen assay. […] Selectivity for Tyk2 over Jak1, and Tyk2 over Jak2, are calculated from the tabulated activity data.

T1 sequence (P29597 whole entry, other chains not shown): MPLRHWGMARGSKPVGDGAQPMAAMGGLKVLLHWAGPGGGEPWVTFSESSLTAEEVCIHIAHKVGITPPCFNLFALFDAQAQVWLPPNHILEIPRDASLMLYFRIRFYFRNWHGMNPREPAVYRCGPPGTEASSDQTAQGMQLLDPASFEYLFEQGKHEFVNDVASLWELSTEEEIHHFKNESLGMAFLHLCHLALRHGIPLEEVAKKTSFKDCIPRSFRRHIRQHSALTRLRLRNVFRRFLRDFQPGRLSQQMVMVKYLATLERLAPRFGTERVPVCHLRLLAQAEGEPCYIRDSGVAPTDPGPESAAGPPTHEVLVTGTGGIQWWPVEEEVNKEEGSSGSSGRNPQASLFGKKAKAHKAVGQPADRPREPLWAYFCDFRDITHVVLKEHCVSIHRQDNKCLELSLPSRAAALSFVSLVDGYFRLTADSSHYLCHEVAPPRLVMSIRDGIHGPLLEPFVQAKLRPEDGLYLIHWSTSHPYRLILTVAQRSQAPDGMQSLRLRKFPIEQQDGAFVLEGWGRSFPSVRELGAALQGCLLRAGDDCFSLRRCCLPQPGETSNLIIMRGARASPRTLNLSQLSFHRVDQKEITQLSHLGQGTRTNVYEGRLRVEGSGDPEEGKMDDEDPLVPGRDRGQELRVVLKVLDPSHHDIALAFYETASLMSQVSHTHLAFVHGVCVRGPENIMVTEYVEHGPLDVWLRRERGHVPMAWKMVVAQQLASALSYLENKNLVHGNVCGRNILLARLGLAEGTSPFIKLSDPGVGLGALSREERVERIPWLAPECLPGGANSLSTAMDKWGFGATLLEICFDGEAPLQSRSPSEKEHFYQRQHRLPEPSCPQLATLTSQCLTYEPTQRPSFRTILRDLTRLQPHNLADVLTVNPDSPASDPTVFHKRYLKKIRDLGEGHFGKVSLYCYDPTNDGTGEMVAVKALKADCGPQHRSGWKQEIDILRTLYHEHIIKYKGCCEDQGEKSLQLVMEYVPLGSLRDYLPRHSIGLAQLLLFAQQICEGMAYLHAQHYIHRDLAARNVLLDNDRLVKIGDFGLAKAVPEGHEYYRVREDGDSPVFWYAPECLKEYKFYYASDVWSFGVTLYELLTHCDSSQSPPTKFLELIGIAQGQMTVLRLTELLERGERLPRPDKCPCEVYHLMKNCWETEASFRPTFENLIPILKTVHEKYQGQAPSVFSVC

EC50: 540 nM
Structure (SMILES): CC(=O)Nc1cc2c(-c3cccc([C@@]4(CO)CCOC4)n3)c[nH]c2cn1 [21-NH (R-isomer)]

— patent US10508113B2, “Inhibitors of tyrosine kinase 2 mediated signaling” (AbbVie Inc., priority 2018, dated 2019)
